PMC3677654, “Soy Glycinin Contains a Functional Inhibitory Sequence against Muscle-Atrophy-Associated Ubiquitin Ligase Cbl-b” (International Journal of Endocrinology, 2013)
Entries after “also recorded” stand apart in the source; their conditions may differ.

Legend:
[1] = test system: denervated skeletal muscle of mice; settings: ref [4], cited from earlier work
Text: Therefore, we hypothesized that foodstuffs that contain Cblin-like amino acid sequence can be used to prevent unloading-induced muscle atrophy.

[2] = test system: interaction between Cbl-b and IRS-1; test: Interaction between Cbl-b and IRS-1 in HEK293 cells (co-immunoprecipitation); type: cell-based, human Cbl-b, rat IRS-1; settings: 120 μM, anti-IRS-1 immunoprecipitates
Protocol: (§1) HEK293 cells (40–60% of confluence) were transfected with plasmid vectors, using Hily Max lipofection reagent (DOJINDO, Kumamoto, Japan), as described previously. The expression plasmids used in this study were pCEFL-human Cbl-b-HA, pcDNA3.1-rat IRS-1-V5, and pcDNA3-FLAG-Ubiquitin.
(§2) Immunoblot and immunoprecipitation analyses were performed as described previously. The following antibodies were used: anti-actin (Calbiochem, La Jolla, CA, USA), anti-HA.11 (BabCo, Richmond, CA, USA), anti-V5 (Invitrogen, Carlsbad, CA, USA), anti-FLAG M2 (Sigma, St. Louis, MO, USA), anti-IRS-1 (Upstate Biotechnology, Lake Placid, NY, USA), anti-Akt-1 (PharMingen International, Tokyo), and anti-phospho-S^473-Akt-1 (Cell Signaling Technology, Beverly, MA, USA).
Figure 3 Inhibitory effect of Cblin-like synthetic peptide on Cbl-b-mediated degradation and ubiquitination of IRS-1. HEK293 cells were transfected with mock vector/pCEFL-Cbl-b-HA, pcDNA3.1-rat IRS-1-V5, and pcDNA3-FLAG-Ubiquitin and then treated with 100 nM epoxomicin at 2 hours before treatment with each peptide at the indicated concentrations. One hour later, these cells were treated with 10 ng/mL IGF-1 for 1 hour. Immunoprecipitates (IP) from whole cell lysates incubated with an anti-IRS-1 antibody were subjected to immunoblot (IB) analysis for the indicated proteins. […]

[3] = test system: Cbl-b-mediated ubiquitination of IRS-1; settings: ref [4], cited from earlier work; for Inhibitory activity on Cbl-b-mediated IRS-1 ubiquitination: in words
Text: These peptides were kindly provided by Fuji Oil Co. (Osaka, Japan). […] A patent application was lodged for the sequence of this peptide (Pat. no. 5113346).

[4] = test system: Cbl-b-mediated ubiquitination of IRS-1; test: Cbl-b-mediated IRS-1 ubiquitination in transfected HEK293 cells; type: cell-based, human Cbl-b, rat IRS-1; settings: 120 μM, 10 ng/mL IGF-1 for 1 h, 100 nM epoxomicin, immunoblot
Protocol: HEK293 cells were maintained in Dulbecco's modified Eagle medium (DMEM) containing 10% fetal bovine serum, 100 U/mL penicillin, and 100 μg/mL streptomycin at 37°C under 5% CO2-[…] gas mixture.
as §1, §2
We used the following pentapeptides or hexapeptides derived from soy: soy-glycinin-derived peptide, soy-β-conglycinin-derived peptide, lipoprotein- (LP-) derived peptide, and soy protein isolate (SPI). These peptides were kindly provided by Fuji Oil Co. (Osaka, Japan). […] A patent application was lodged for the sequence of this peptide (Pat. no. 5113346). […] These peptides were kindly provided by Otsuka Pharmaceutical Co. (Tokushima, Japan). […]

| Substance | Prevention of denervation-induced muscle atrophy ([1]; mice) | Expression of MAFbx/atrogin-1 [1] | Inhibition of interaction between Cbl-b and IRS-1 [2] | IC50 ([3]; approximate) | Inhibitory activity on Cbl-b-mediated IRS-1 ubiquitination [3] | Inhibition of IRS-1 ubiquitination [4] |
| --- | --- | --- | --- | --- | --- | --- |
| DGpYMP [Cblin] | inhibited Cbl-b-mediated degradation of IRS-1, resulting in suppression of denervation-mediated muscle atrophy; also recorded: prevented denervation-induced muscle atrophy in mice | inhibited Cbl-b-mediated IRS-1 ubiquitination and expression of MAFbx/atrogin-1 | inhibited IRS-1 ubiquitination and interaction between Cbl-b and IRS-1 | ~120 µM | exhibited inhibitory activity on Cbl-b-mediated IRS-1 ubiquitination; also recorded: inhibited Cbl-b-mediated ubiquitination and degradation of IRS-1 both in vitro and in vivo | inhibited IRS-1 ubiquitination |
| VGpYLR | – | – | – | – | no inhibitory activity against Cbl-b-mediated IRS-1 ubiquitination | – |
